Values quoted from earlier work as cited in patent US20090221469A1, “USE OF SOY KEFIR POWDER FOR REDUCING PAIN, BLOOD PRESSURE AND INFLAMMATION” (KCLM RESEARCH IN NUTRITION INC., priority 2006, published 2009).

Legend:
[1] = test system: patients with neuralgia or moderate to severe nonmalignant pain; conditions: treatment of neuralgia (Stacey et al., 2004)

Row | Molecule | half-lives | SF-36 improvement of mean scores for bodily pain [1]
1 | isoflavones | 4 to 8 h | –
2 | NCC1(CC(=O)O)CCCCC1 [gabapentin] | – | 9.2 points
